Reference: patent publication US20250282803A1, “DIDEHYDRO-3'-DEOXY-4'-ETHYNYLTHYMIDINES AND RELATED COMPOUNDS AND THEIR USE IN TREATING MEDICAL CONDITIONS” (ROME Therapeutics, Inc., priority 2022, published 2025)

Key:
[1] = biological target: T1, LINE1 reverse transcriptase (Homo sapiens, UniProt O00370); assay: Stable artificial-intron Cis LINE1 reporter assay; type: cell-based; parameters: host or cells: HeLa Tet-On 3G; conditions: stable HeLa Tet-On 3G L1 reporter cells, doxycycline 500 ng/mL, 72 h; Firefly Luciferase activity
Protocol: Exemplary compounds were tested for ability to inhibit LINE1 reverse transcriptase using a stable artificial-intron Cis LINE1 reporter assay. Assay procedures and results are described below.
A stable HeLa Tet-On 3G (Takara, cat no 631183) cell line expressing a bi-directional inducible LINE1 construct was generated as described in Xie, Y. et al. “Cell division promotes efficient retrotransposition in a stable L1 reporter cell line,” Mobile DNA (2013) 4:10. Single cell clones were screened for high Luciferase expression and the highest expression Firefly expressing clone was chosen for compound testing.
Test compounds were serially diluted in DMSO and spotted in 96-well plates. Subsequently the HeLa L1 artificial-intron reporter cells were plated into the compound-containing wells (8,000 cells/well), and the cells were induced for reporter expression with doxycycline (Sigma cat no D9891) at a final concentration of 500 ng/mL. Luminescence was measured 72 h after plating using the Dual-Glo Luciferase Assay System (Promega cat no E2940) following the manufacturer's instructions. The Firefly Luciferase activity was used to report LINE1 activity.

[2] = biological target: T1, LINE1 reverse transcriptase; assay: Transient artificial-intron Cis LINE1 reporter assay; type: cell-based; conditions: HEK 293 cells, transient transfection; ratio FLuc/RLuc reports LINE1 activity
Protocol: The following compound (hereinafter “Test Compound”) was tested for ability to inhibit LINE1 reverse transcriptase using a transient artificial-intron Cis LINE1 reporter assay:
Additional exemplary compounds were also tested for ability to inhibit LINE1 reverse transcriptase using a transient artificial-intron Cis LINE1 reporter assay. Assay procedures and results are described below.
Intron-disrupted Firefly luciferase (FLuc) expression cassettes were generated as described by Xie, Y. et al. “Characterization of L1 retrotransposition with high-throughput dual-luciferase assays,” Nucleic Acid Res. (2011) Vol. 39, No. 3, e16. In addition, the plasmid contained an intact Renilla luciferase (RLuc) expression cassette on the vector backbone, in order to normalize transfection efficiency and measure potential cell toxicity.
HEK 293 cells were seeded in 96-well plates at 1,000 cells/well in 55 μL and grown for 24 hours. Cells were transfected with FuGeneHD (Promega) following the manufacturer's protocol. Each well received 0.133 ng plasmid, 0.4 μL FuGeneHD reagent, and 4.5 μL GlutaMAX-I-supplemented Opti-MEM I reduced-serum medium (Invitrogen). Cells were simultaneously treated with test compound serially diluted starting at 100 μM in a 3-fold dilution dose response.
Luminescence was measured using the Dual-Glo Luciferase Assay System (Promega) following the manufacturer's instructions. The ratio between FLuc and RLuc gene expression was used to report LINE1 activity.

T1 sequence (O00370 whole entry, looked up): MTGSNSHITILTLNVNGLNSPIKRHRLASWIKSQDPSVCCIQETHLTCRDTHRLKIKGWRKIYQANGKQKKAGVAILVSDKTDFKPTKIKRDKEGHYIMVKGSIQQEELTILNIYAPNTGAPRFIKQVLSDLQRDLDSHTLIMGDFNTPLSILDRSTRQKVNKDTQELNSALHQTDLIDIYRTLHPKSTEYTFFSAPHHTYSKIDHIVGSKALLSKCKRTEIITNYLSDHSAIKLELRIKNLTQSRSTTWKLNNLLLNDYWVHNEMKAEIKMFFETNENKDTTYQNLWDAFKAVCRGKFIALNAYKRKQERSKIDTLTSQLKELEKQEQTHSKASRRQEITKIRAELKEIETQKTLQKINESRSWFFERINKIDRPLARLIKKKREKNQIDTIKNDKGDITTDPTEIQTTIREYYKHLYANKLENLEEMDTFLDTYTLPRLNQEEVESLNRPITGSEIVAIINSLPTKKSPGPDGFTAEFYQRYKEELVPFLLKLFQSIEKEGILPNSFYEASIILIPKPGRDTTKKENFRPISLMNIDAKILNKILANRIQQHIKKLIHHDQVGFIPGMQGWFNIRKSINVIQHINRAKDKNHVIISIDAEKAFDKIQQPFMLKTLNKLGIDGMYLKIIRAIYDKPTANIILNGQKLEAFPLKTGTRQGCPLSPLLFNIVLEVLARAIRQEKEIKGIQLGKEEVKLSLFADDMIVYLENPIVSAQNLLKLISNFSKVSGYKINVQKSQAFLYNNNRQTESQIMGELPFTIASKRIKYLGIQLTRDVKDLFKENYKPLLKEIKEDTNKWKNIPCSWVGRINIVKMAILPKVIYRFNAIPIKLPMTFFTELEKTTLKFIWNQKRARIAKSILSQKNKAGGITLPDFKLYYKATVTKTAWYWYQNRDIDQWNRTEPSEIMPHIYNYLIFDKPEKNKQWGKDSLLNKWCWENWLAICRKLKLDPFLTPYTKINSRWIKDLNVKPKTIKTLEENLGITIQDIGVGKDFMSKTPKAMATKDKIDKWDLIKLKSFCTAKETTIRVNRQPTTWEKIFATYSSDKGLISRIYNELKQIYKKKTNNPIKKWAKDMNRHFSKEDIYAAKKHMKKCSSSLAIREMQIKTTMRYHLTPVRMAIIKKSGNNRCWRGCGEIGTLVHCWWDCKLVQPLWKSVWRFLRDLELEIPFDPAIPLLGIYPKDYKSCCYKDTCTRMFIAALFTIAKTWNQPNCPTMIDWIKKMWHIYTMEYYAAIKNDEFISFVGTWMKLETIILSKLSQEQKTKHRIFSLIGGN

| SMILES | IC50 [1] | IC50 [2] |
| --- | --- | --- |
| C#C[C@@]1(CO)C=C[C@H](n2cc(C)c(=O)[nH]c2=O)O1 | 50 to 500 nM |  |
| C#C[C@@]1(COP(=O)(N[C@@H](C)C(=O)OCc2ccccc2)Oc2ccccc2)C=C[C@H](n2cc(C)c(=O)[nH]c2=O)O1 (mixture of isomers) [Benzyl ((((2R,5R)-2-Ethynyl-5-(5-methyl-2,4-dioxo-3,4-dihydropyrimidin-1(2H)-yl)-2,5-dihydrofuran-2-yl)methoxy)(phenoxy)phosphoryl)-L-alaninate] | 50 to 500 nM |  |
| C#C[C@@]1(COP(=O)(N[C@@H](C)C(=O)OC)Oc2ccccc2)C=C[C@H](n2cc(C)c(=O)[nH]c2=O)O1 (mixture of isomers) [Methyl ((((2R,5R)-2-Ethynyl-5-(5-methyl-2,4-dioxo-3,4-dihydropyrimidin-1(2H)-yl)-2,5-dihydrofuran-2-yl)methoxy)(phenoxy)phosphoryl)-L-alaninate] | > 500 nM |  |
| C#C[C@@]1(COP(=O)(N[C@@H](C)C(=O)OC)Oc2ccc(Br)cc2)C=C[C@H](n2cc(C)c(=O)[nH]c2=O)O1 (single isomer, unassigned) [P-Diastereomer 1 from Example 2; I-7 or I-8] | 50 to 500 nM |  |
| C#C[C@@]1(COP(=O)(N[C@@H](C)C(=O)OCC(C)(C)C)Oc2cccc3ccccc23)C=C[C@H](n2cc(C)c(=O)[nH]c2=O)O1 (single isomer, unassigned) [P-Diastereomer 1 from Example 2; I-16 or III-1] | 50 to 500 nM | 50 to 500 nM |
| C#C[C@@]1(COP(=O)(NC(C)(C)C(=O)OC(C)C)Oc2ccccc2)C=C[C@H](n2cc(C)c(=O)[nH]c2=O)O1 (single isomer, unassigned) [P-Diastereomer 1 from Example 2; II-22 or II-23] | > 500 nM |  |
| C#C[C@@]1(COP(=O)(NCc2ccccc2)OCCSC(=O)C(C)(C)CO)C=C[C@H](n2cc(C)c(=O)[nH]c2=O)O1 (single isomer, unassigned) [P-Diastereomer 1 from Example 3; II-1 or II-2] | 50 to 500 nM | 50 to 500 nM |
| C#C[C@@]1(COP(=O)(N[C@@H](C)C(=O)OC)Oc2ccc(Br)cc2)C=C[C@H](n2cc(C)c(=O)[nH]c2=O)O1 (single isomer, unassigned) [P-Diastereomer 2 from Example 2; I-7 or I-8] |  | 50 to 500 nM |
| C#C[C@@]1(COP(=O)(N[C@@H](C)C(=O)OCC(C)(C)C)Oc2cccc3ccccc23)C=C[C@H](n2cc(C)c(=O)[nH]c2=O)O1 (single isomer, unassigned) [P-Diastereomer 2 from Example 2; I-16 or III-1] | 50 to 500 nM | ≤ 50 nM |
| C#C[C@@]1(COP(=O)(NC(C)(C)C(=O)OC(C)C)Oc2ccccc2)C=C[C@H](n2cc(C)c(=O)[nH]c2=O)O1 (single isomer, unassigned) [P-Diastereomer 2 from Example 2; II-22 or II-23] | > 500 nM |  |
| C#C[C@@]1(COP(=O)(NCc2ccccc2)OCCSC(=O)C(C)(C)CO)C=C[C@H](n2cc(C)c(=O)[nH]c2=O)O1 (single isomer, unassigned) [P-Diastereomer 2 from Example 3; II-1 or II-2] |  | 50 to 500 nM |

More lines, now with the values ahead:

| IC50 [1] | IC50 [2] | SMILES |
| --- | --- | --- |
| > 500 nM | 50 to 500 nM | C#C[C@@]1(CO[P@](=O)(N[C@@H](C)C(=O)OC(C)C)Oc2ccccc2)C=C[C@H](n2cc(C)c(=O)[nH]c2=O)O1 [Compound I-1, Isopropyl ((R)-(((2R,5R)-2-Ethynyl-5-(5-methyl-2,4-dioxo-3,4-dihydropyrimidin-1(2H)-yl)-2,5-dihydrofuran-2-yl)methoxy)(phenoxy)phosphoryl)-L-alaninate] |
| > 500 nM | 50 to 500 nM | C#C[C@@]1(CO[P@@](=O)(N[C@@H](C)C(=O)OC(C)C)Oc2ccccc2)C=C[C@H](n2cc(C)c(=O)[nH]c2=O)O1 [Compound I-2, Isopropyl ((S)-(((2R,5R)-2-Ethynyl-5-(5-methyl-2,4-dioxo-3,4-dihydropyrimidin-1(2H)-yl)-2,5-dihydrofuran-2-yl)methoxy)(phenoxy)phosphoryl)-L-alaninate] |
| 50 to 500 nM | 50 to 500 nM | C#C[C@@]1(CO[P@](=O)(N[C@@H](C)C(=O)OCC(CC)CC)Oc2ccccc2)C=C[C@H](n2cc(C)c(=O)[nH]c2=O)O1 [Compound I-5, 2-Ethylbutyl ((R)-(((2R,5R)-2-Ethynyl-5-(5-methyl-2,4-dioxo-3,4-dihydropyrimidin-1(2H)-yl)-2,5-dihydrofuran-2-yl)methoxy)(phenoxy)phosphoryl)-L-alaninate] |
| 50 to 500 nM | 50 to 500 nM | C#C[C@@]1(CO[P@@](=O)(N[C@@H](C)C(=O)OCC(CC)CC)Oc2ccccc2)C=C[C@H](n2cc(C)c(=O)[nH]c2=O)O1 [Compound I-6, 2-Ethylbutyl ((S)-(((2R,5R)-2-Ethynyl-5-(5-methyl-2,4-dioxo-3,4-dihydropyrimidin-1(2H)-yl)-2,5-dihydrofuran-2-yl)methoxy)(phenoxy)phosphoryl)-L-alaninate] |
| ≤ 50 nM |  | C#C[C@@]1(COP(=O)(OCOC(=O)OC(C)C)OCOC(=O)OC(C)C)C=C[C@H](n2cc(C)c(=O)[nH]c2=O)O1 [IV-1, 1-[(2R,5R)-5-[({di[(isopropoxycarbonyl)oxy]methoxyphosphoryl}oxy)methyl]-5-ethynyl-2H-furan-2-yl]-5-methyl-3H-pyrimidine-2,4-dione] |
